Test results taken from patent US20210052546A1, “METHODS AND PHARMACEUTICAL COMPOSITIONS FOR THE TREATMENT OF FGFR3-RELATED CHONDRODYSPLASIAS” (INSERM (INSTITUT NATIONAL DE LA SANTÉ ET DE LA RECHERCHE …, priority 2018, published 2021).

Key:
[1] = test system: Fgfr3^Y367C/+ chondrocytes; test: Primary cilium length in antenatal E16.5 Fgfr3Y367C/+ chondrocytes (immunocytochemistry); type: cell-based, mice
Protocol: Cultured chondrocytes issued from Fgfr3^Y367C/+ were fixed at room temperature for 10 min in methanol (chilled at −20° C.), and then washed with PBS. Samples were permeabilized for 10 min with PBS containing 0.1% Triton-X100 (Sigma-Aldrich), then washed three times for 5 min. Samples were incubated with PBS containing 10% goat serum (Biowest) for 60 min at room temperature. Primary antibodies were incubated at 4° C. overnight. The following primary antibodies were used: mouse IgG1 anti-γ-tubulin (Sigma-Aldrich #T6557, 1:1000) and rabbit anti-Ar113b (Proteintech #177111-AP, 1:500). Cells were washed with PBS, and then incubated with goat anti-mouse IgG1 coupled with AlexaFluor 488 (Life Technologies, 1:1000) and goat anti-rabbit coupled with AlexaFluor 647 (Life Technologies, 1:1000) secondary antibodies for 2h at room temperature in the dark. Samples were extensively washed and mounted with a solution of DAPI-Fluoromount G (SouthernBiotech) containing DAPI (4′,6′-diamidino-2-phenylindole) for nuclear staining. Image acquisition were captured using a Spinning disk confocal microscope. […] In order to compare measured data, all confocal experiments showing PC length was acquired in same conditions using slice thickness of 0.20 μm and a pixel size of 60 nm. […] We next measured in 2D the PC lengths by IMARIS software (Bitplane).

Fgfr3^+/+ femurs = test: Ex vivo femur cultures isolated from Fgfr3+/+ mice
Protocol: (§1) Several sets of ex vivo experiments were performed as previously described (Jonquoy et al., Hum Mol Genet, 21: 841-851, 2012). Femur embryos at day E16.5 from Fgfr3^+/+ (n=23) and Fgfr3^Y367C/+ (n=16) mice were used and incubated for 6 days in DMEM medium with antibiotics and 0.2% BSA (Sigma) supplemented with cocoa F5 or (−)-epicatechin (Sigma-0394-05-90) or DMSO (as control) at a concentration of 10 and 30 μg/ml. To establish the effect of the inhibitors, the left femur was cultured in supplemented medium and compared with the right one cultured in control medium. The bone length was measured at the beginning (before treatment) and at the end of time course. The genotype of Fgfr3^+/+ and Fgfr3^Y367C/+ mice were determined by PCR of tail DNA as previously described (Pannier et al., Biochim Biophys Acta, 1792: 140-147, 2009). All experimental procedures and protocols were approved by the Animal Care and Use Committee.

growth plate cartilage = test: Histology and immunohistochemistry of growth plate cartilage of cultured femur explants; parameters: species or system mice
Protocol: In order to appreciate the impact of the treatment on the growth plate cartilage, we performed histological and immunohistological studies. We selected specific markers of the cartilage, SOX9 and Collagen type X, we tested the expression of the protein FGFR3 and we also evaluated the expression of the phosphorylated Erk1/2 proteins of the […] signalling and activated by FGFR3. Limb explants were fixed after culture in 4% paraformaldehyde at 4° C. and embedded in paraffin. Serial 5 μm sections were stained with Hematoxylin-Eosin using standard protocols for histological analysis or were subjected to immunohistochemical staining. For immunohistochemistry, sections were stained with antibodies specific to FGFR3 (1:100 dilution; Sigma), anti-Collagen type X (1:50 dilution; Quartett) anti-SOX9 (1:1000 dilution; Abcam), anti-phosphorylated Erk1/2 (1:100 dilution; Cell signaling) using the Dako Envision system kit. Images were captured with an Olympus PD70-IX2-UCB microscope.

Fgfr3^Y367C/+ femurs = test: Ex vivo femur cultures isolated from Fgfr3Y367C/+ mice
Protocol: as §1

[2] = proximal and distal femurs, immunohistochemistry

SMILES: Oc1cc(O)c2c(c1)O[C@H](c1ccc(O)c(O)c1)[C@H](O)C2 [(−)-epicatechin, (2R,3R)-2-(3,4-dihydroxyphenyl)-3,4-dihydro-2H-chromene-3,5,7-triol]
- effect on primary cilium ([1]; Fgfr3Y367C/+ chondrocytes): elongation
- primary cilium average length (A) ([1]; Fgfr3Y367C/+ chondrocytes treated with (−)-epicatechin, n=113, N=3, mean+S.E.M., untreated 2.10+0.06, in µm): 2.45+0.09
- size of the femurs, Fgfr3+/+ (Fgfr3^+/+ femurs; 1 μg/ml (FIG. 13)): did not improve
- growth of the Fgfr3+/+ femurs (Fgfr3^+/+ femurs; 10 μg/ml, 6 days culture): did not impair
- reserve, proliferative and pre-hypertrophic zones of the growth plate cartilage (growth plate cartilage; H&E staining): increased
- whole growth plate cartilage (growth plate cartilage; H&E staining): improved
- epiphysis size (growth plate cartilage; proximal and distal femur, histology): increase size
- FGFR3 expression (growth plate cartilage; [2]): strongly decreased
- SOX9 expression (growth plate cartilage; [2]): strongly decreased
- collagen type X expression (growth plate cartilage; [2]): not modified
- phosphorylated Erk1/2 expression (growth plate cartilage; [2]): slightly decreased
- size of the femurs, Fgfr3Y367C/+ (Fgfr3^Y367C/+ femurs; 1 μg/ml (FIG. 13)): did not improve
- percentage of femur growth in Fgfr3Y367C/+ mice versus Fgfr3+/+ mice (Fgfr3^Y367C/+ femurs; 10 μg/ml, 6 days culture): more important
- increase of length of the Fgfr3Y367C/+ femurs comparing to Fgfr3+/+ femurs (Fgfr3^Y367C/+ femurs; 10 μg/ml, E16.5 femurs, 6 days culture): +10%
